Where “and” joins values, the source holds several entries; their conditions need not be identical. Equal entries are not always repeated. Where two headings read alike, the source gives them in different places.
Tests used:
D20-37KpHdaH = type: biochemical, Klebsiella pneumoniae; details: substrate with D20-37KpHdaH (L1-loop deletion)
BsAcuC = BsAcuC (Bacillus subtilis, UniProt P39067); type: biochemical; details: substrate with BsAcuC
KpHdaH H144A = type: biochemical, Klebsiella pneumoniae
RwDmhA (1b) [1] = target: T1, RwDmhA (1b) (Rhizorhabdus wittichii, UniProt A0A067XIQ6); assay: biochemical; details: for remaining activity at 1 µM: inhibitor 1 µM
LcApaH (3) = LcApaH (3) (Legionella cherrii, UniProt A0A0W0SGS1); assay: biochemical; details: for IC50: 0.5 nM enzyme, 30 min, 37 °C
PsApaH (4) = PsApaH (4) (Pseudomonas sp. M30-35, UniProt A0A1Y0KY79); assay: biochemical
(UniProt A0A2N0XRJ0) = assay: biochemical; design: species or system Vibrio sp.; details: for IC50: 60 µM QPKKac, 1.5 nM enzyme, 60 min, 37 °C
VcHdaH (5b) = details: VcHdaH (5b)+TSA control; for RFU: 20 nM enzyme, 37 °C, single replicates; for RFU, mean: mean of n = 3
HsHDAC11 (5f) = details: cited from earlier work
LpApaH (3) = LpApaH (3) (Legionella pneumophila, UniProt A0A2S6EWV0); assay: biochemical
BsAcuC (2c) [2] = target: T2, BsAcuC (2c) (Bacillus subtilis, UniProt P39067); assay: Dose-response inhibition assay; type: biochemical; details: 40 µM LGKac; for IC50: 200 nM enzyme, 30 min, 37 °C
T2 construct: made in house; host or cells: E. coli BL21 (DE3)
T2 sequence (P39067 1-387): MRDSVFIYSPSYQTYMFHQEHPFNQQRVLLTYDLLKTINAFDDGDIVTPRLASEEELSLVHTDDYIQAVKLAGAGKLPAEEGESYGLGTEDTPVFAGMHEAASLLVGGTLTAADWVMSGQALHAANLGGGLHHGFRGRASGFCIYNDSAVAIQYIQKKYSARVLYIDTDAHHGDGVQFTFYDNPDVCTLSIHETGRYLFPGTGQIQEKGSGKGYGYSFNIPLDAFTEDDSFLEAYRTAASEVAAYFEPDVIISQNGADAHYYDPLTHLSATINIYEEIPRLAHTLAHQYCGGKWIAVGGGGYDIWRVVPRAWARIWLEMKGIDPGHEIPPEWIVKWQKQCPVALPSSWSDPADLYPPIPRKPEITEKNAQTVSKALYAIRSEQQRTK
From the text: Data was transformed to relative enzyme activity (%) compared to control wells without inhibitor, and fitted to sigmoidal functions with variable slope (Eqs. 3, 4 parameters, h: Hill slope) to afford IC50 values. Assuming fast-on/fast-off competitive inhibition, the Cheng–Prusoff equation (Eq. 4) was employed to transform IC50 data into inhibitory constants (Ki), with KM values as determined previously.3 Res.activity=Res.activitybottom+Res.activitytop−Res.activitybottom/1+10^(logIC50−logI)h 4 Ki=IC50/1+[S]/KM

BsAcuC (2c) [3] = target: T2, BsAcuC (2c); assay: Inhibitor screening assay (10 µM or 1 µM); type: biochemical; details: pre-screening at 10 µM or 1 µM inhibitor
From the text: Data was transformed to relative enzyme activity (%) compared to control wells without inhibitors.

KpHdaH (1b) [4] = target: T3, KpHdaH (1b) (Klebsiella pneumoniae, UniProt A0A377Z5F6); assay: biochemical; details: for IC50: 15 nM enzyme, 60 min, 37 °C
KpHdaH (1b) [5] = target: T3, KpHdaH (1b); assay: biochemical; details: for remaining activity at 1 µM: inhibitor 1 µM; for remaining activity at 10 µM: inhibitor 10 µM
RwDmhA (1b) [6] = target: T1, RwDmhA (1b); assay: biochemical; details: for IC50: 30 nM enzyme, 60 min, 37 °C
[7] = decadic log of IC50, read-out: Log[IC50(M)] (converted)
[8] = Log[IC50(M)], decadic log of IC50, 60 µM QPKKac

`CC(=O)NCCCC[C@H](NC(=O)OC(C)(C)C)C(=O)Nc1ccc2c(C)cc(=O)oc2c1` [Boc-Lys(Ac)-AMC] gave an AMC fluorescence (D20-37KpHdaH) of 1597 a.u, an AMC fluorescence (BsAcuC) of 768 a.u and an AMC fluorescence (KpHdaH H144A; substrate with KpHdaH H144A (first of two columns with this head)) of 2059 a.u. The AMC fluorescence (KpHdaH H144A; substrate with KpHdaH H144A (second of two columns with this head)) was 31 a.u.

`CC(/C=C/C(=O)NO)=C\[C@@H](C)C(=O)c1ccc(N(C)C)cc1` [TSA, trichostatin A] gave a remaining activity at 1 µM (RwDmhA (1b) [1]; individual replicates) of 45.9%, a remaining activity at 1 µM (RwDmhA (1b) [1]; mean) of 45.5% and a remaining activity at 10 µM (RwDmhA (1b) [1]; inhibitor 10 µM, mean) of 7.3%. For the same molecule, the IC50 (LcApaH (3); IC50, 40 µM LGKac) was 1.04e-08 M, the Ki (LcApaH (3); Ki, calculated using the Cheng–Prusoff equation, 40 µM LGKac) was 3.95 nM and the IC50 (LcApaH (3); Log[IC50(M)], decadic log of IC50, 40 µM LGKac) was 1.05e-08 M. For the same molecule, the IC50 (PsApaH (4)) was no more than 18.1 nM, the Ki (PsApaH (4)) was no more than 7.56 nM and the Ki ((UniProt A0A2N0XRJ0)) was 11.1 nM. For the same molecule, the IC50 ((UniProt A0A2N0XRJ0); read-out: IC50) was 2.54e-08 M, the IC50 ((UniProt A0A2N0XRJ0); [7]) was 2.51e-08 M and the RFU (VcHdaH (5b); 10 µM peptide 2 (S2), 45 min) was 14 RFU and 2 RFU and 59 RFU. The “RFU, mean” value (VcHdaH (5b); 10 µM peptide 2 (S2)) was 25 RFU, the RFU (VcHdaH (5b); 10 µM peptide 2a (S2a), 30 min) was -513 RFU and -208 RFU and -504 RFU and the “RFU, mean” value (VcHdaH (5b); 10 µM peptide 2a (S2a)) was -408 RFU. The RFU (VcHdaH (5b); 20 µM Boc-Lys(Ac)-AMC, 30 min) was 8 RFU and -7 RFU and -73 RFU, the “RFU, mean” value (VcHdaH (5b); 20 µM Boc-Lys(Ac)-AMC) was -24 RFU and the “inhibition of HsHDAC11 (5f), in words” value (HsHDAC11 (5f)) was “only weakly inhibited”. The IC50 (LpApaH (3); IC50) was 7.17e-09 M, the Ki (LpApaH (3); Ki) was 2.47 nM and the IC50 (LpApaH (3); Log[IC50(M)]) was 7.94e-09 M. For the same molecule, the IC50 (BsAcuC (2c) [2]; read-out: IC50) was 5.93e-07 M, the Ki (BsAcuC (2c) [2]; calculated using the Cheng–Prusoff equation) was 400 nM and the IC50 (BsAcuC (2c) [2]; [7]) was 6.31e-07 M. The “inhibition of BsAcuC (2c) in the initial screen, in words” value (BsAcuC (2c) [3]) was “only weakly inhibited”, the IC50 (KpHdaH (1b) [4]; IC50, 60 µM QPKKac) was no more than 1.07e-08 M and the Ki (KpHdaH (1b) [4]; Ki, calculated using the Cheng–Prusoff equation, 60 µM QPKKac) was no more than 2.47 nM. It also gave an IC50 (KpHdaH (1b) [4]; [8]) of no more than 1.07e-08 M, a remaining activity at 1 µM (KpHdaH (1b) [5]; individual replicates) of 2.1% and a remaining activity at 1 µM (KpHdaH (1b) [5]; mean) of 2.15%. For the same molecule, the remaining activity at 10 µM (KpHdaH (1b) [5]; individual replicates) was -0.2%, the remaining activity at 10 µM (KpHdaH (1b) [5]; mean) was -0.2% and the Ki (RwDmhA (1b) [6]) was 356 nM. For the same molecule, the IC50 (RwDmhA (1b) [6]; IC50, 60 µM QPKKac) was 8.65e-07 M and the IC50 (RwDmhA (1b) [6]; [8]) was 8.71e-07 M.
